These results are taken from patent publication US20220242870A1, “HETEROCYCLE-FUSED PYRIMIDINE DERIVATIVE AND USE THEREOF” (VORONOI Inc., priority 2019, published 2022).

One experiment deals with T1, CDK6 cyclin D1 (Homo sapiens, UniProt Q00534).
T1 construct: purchased Reaction Biology (USA), contract assay
In words: CDK6 enzyme inhibitory ability (Reaction Biology). The class given is biochemical. Conditions: measured in Reaction Biology (USA). How it is done:
(§1) In order to evaluate the CDK4 and CDK6 enzyme inhibitory activities of the example compounds according to the present invention, IC5O (nM) was measured for the CDK4 cyclin D1 and CDK6 cyclin D1 enzymes in Reaction Biology (USA), and the results were shown in Table 3 below.

The next experiment has as its target CDK4-cyclinD1 (Homo sapiens, UniProt P11802). In words: CDK4 enzyme inhibitory ability (Reaction Biology). Type of experiment: biochemical. Further details: purchased Reaction Biology (USA), contract assay. Conditions: measured in Reaction Biology (USA). As to the method:
as §1

The next experiment deals with MV4-11 cells. In words: AML cell proliferation inhibitory activity (CellTiter-Glo). Type of experiment: cell-based. The settings on record: Homo sapiens, 72 hours. The essentials: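 RS4;11 and MV4-11 cells in RPMI-1640 with 10% FBS, seeded 24 h before treatment, then exposed 72 h to 12 three-fold dilutions (0.3 nM–50 μM final). Viability by CellTiter-Glo luminescence relative to solvent control; GI50 from triplicate experiments.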

A further experiment concerns the target T2, human FLT3-ITD enzyme (Homo sapiens, UniProt P36888).
T2 sequence (P36888 1-993): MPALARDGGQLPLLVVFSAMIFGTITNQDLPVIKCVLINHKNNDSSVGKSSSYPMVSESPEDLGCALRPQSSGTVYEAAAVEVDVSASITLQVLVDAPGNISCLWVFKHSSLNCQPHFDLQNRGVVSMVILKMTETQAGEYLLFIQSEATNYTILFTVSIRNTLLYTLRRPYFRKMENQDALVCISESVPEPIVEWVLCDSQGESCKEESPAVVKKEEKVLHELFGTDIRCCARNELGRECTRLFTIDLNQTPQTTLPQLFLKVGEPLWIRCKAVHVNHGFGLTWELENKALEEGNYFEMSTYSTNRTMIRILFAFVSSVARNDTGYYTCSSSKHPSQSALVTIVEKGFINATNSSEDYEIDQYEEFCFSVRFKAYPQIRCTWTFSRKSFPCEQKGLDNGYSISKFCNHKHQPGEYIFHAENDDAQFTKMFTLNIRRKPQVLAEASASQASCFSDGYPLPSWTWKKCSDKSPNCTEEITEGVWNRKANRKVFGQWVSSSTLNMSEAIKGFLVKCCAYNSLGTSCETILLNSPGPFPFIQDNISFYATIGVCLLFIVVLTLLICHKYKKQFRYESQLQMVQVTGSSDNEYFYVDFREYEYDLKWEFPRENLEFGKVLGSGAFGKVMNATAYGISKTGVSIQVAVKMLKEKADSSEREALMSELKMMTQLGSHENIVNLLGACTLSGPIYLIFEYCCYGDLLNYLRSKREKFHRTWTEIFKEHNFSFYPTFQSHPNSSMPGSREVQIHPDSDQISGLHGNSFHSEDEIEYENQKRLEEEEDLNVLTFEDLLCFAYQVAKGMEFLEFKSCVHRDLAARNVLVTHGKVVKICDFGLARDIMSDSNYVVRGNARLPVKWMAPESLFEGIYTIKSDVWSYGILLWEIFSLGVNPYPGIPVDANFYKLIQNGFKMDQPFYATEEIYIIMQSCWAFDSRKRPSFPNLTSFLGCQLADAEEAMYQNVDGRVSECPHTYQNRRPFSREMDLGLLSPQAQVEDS
In words: FLT3 enzyme inhibitory ability (ADP-Glo kinase assay). The class given is biochemical. Conditions: human FLT3-ITD enzyme 10 ng, ATP 10 μM, 25° C. 1 hour. The essentials: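 Purified human FLT3-ITD (10 ng) with 10 μM ATP and specific substrate in 40 mM Tris-HCl pH 7.4, 20 mM MgCl2, 0.5 mg/mL BSA, 50 μM DTT, 1 h at 25 °C. ADP formation read by ADP-Glo luminescence; IC50 (nM) versus solvent-treated control.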

T1 sequence (Q00534 whole entry): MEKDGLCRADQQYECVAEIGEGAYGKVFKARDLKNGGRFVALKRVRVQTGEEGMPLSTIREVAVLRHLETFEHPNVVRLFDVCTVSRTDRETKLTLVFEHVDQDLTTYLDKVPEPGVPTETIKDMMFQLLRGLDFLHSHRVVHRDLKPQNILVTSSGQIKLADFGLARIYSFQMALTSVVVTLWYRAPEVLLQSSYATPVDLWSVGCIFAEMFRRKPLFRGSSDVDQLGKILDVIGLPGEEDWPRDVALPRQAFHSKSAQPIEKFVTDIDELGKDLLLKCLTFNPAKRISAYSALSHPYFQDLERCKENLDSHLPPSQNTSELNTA
T1 sequence (P24385 whole entry partner): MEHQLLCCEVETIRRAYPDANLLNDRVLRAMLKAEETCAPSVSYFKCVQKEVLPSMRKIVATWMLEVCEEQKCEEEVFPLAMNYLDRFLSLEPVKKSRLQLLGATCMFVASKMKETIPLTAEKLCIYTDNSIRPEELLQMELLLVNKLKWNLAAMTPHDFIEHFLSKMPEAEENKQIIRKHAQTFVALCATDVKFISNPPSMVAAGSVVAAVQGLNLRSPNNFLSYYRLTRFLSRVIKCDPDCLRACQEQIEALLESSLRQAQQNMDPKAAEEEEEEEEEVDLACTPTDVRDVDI
CDK4-cyclinD1, sequence (P11802 whole entry): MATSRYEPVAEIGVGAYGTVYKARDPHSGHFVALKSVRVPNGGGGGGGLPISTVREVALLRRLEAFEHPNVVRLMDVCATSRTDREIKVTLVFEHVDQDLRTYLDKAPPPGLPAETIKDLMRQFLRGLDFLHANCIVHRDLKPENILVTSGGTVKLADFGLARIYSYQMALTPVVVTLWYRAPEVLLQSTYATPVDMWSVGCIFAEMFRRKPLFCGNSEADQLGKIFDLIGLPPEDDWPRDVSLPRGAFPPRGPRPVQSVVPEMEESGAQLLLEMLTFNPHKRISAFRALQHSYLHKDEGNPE
CDK4-cyclinD1, sequence (P24385 whole entry partner): as the sequence (P24385 whole entry partner) above

For `CN1CCN(c2ccc(Nc3nc(N4OCC[C@H]4c4ccccc4)c4cc[nH]c4n3)cc2)CC1` [Example 74, (S)-N-(4-(4-methylpiperazin-1-yl)phenyl)-4-(3-phenylisoxazolidin-2-yl)-7H-pyrrolo[2,3-d]pyrimidin-2-amine], the half-maximal inhibitory concentration (IC50) on CDK6 cyclin D1 is at least 250 nM; on CDK4-cyclinD1, at least 250 nM; against human FLT3-ITD enzyme it was over 500 nM. The concentration for 50% growth inhibition (GI50) in the experiment on MV4-11 cells was at least 250 nM.
